Assay results published in patent US20080176787A1, “Parathyroid hormone analogues and methods of use” (priority 2005, published 2008).
Read-outs that look alike come from different tables or passages of the source. Positions of bridges follow the written chain, without caps; N, C: chain ends. Residues, ends and D or L forms follow the SMILES beside them.

Assay: Phase II pharmacokinetic evaluation of subcutaneous Ostabolin-C (Baseline and Week 12 subset)
Type: in vivo, human
Conditions: human, blood; for Cmax: read-out: Cmax
Description: The objective of this portion of the study was to evaluate the pharmacokinetics of Ostabolin-C under steady state conditions when given subcutaneously (sc) once a day to post-menopausal female subjects with low bone mineral density.
After Screening procedures and a 2-week placebo run-in phase, subjects were to be dosed once a day for 16 weeks with either Placebo or Ostabolin-C (7.5, 15, 30 or 45 μg). A subset of subjects from all treatment groups had blood collected for measurements of Ostabolin-C in order to determine PK parameters and compare them to prior studies.
The full study duration of the study was 22 weeks, which included a 6-week screening period involving a 2-week placebo run-in and then 16 weeks of treatment. The subset of subjects for this component of the study was treated the same as all other subjects with the exception of the additional blood collections at baseline and Week 12.
All of the values from the Placebo subject except one (Baseline 2 hour time-point) were below the assay level of detection (i.e., 10 pg/ml). With very limited exceptions, all values from Placebo subjects in prior trials have also been below the levels of detection. Thus, this one value was considered to be a laboratory error and PK parameters for this placebo subject were not calculated.
No samples were obtained for Pre-dose at either Baseline or Week 12. In all prior studies, pre-treatment values have been below the levels of detection and 24-hour time points at doses of 40 ug and below have been below the levels of detection. Thus, no observable values were anticipated and for calculating PK the pre-treatment values for Baseline visit were set to zero.
For pre-dose at Week 12, it was also anticipated that the values would be below the levels of detection based on prior studies and that the 24-hour post dose value would verify this. Only two 24-hour time-point values were above the level of detection; i.e. 24 hours post dosing at Baseline for Subject 030-003 and 24 hours post dosing at Week 12 for Subject 030-0004. The values of both of these 24-hour time-points were marginally above the assay level of detection. Also, both of these subjects had values below the levels of detection for both the 4 hour and 6 hour time-points after dosing on the prior day. Thus, these values are most likely artifacts and not real values. No valid 24 hour sample for subject 032-0001 at Week 12 was obtained. […] Thus, for calculating PK parameters, the Pre-dose values for Week 12 were also set to zero.
The pharmacokinetic parameters that were estimated at Baseline and Week 12 are as follows:
AUC values were estimated by a simple summation of trapezoidal areas from each time period. Data from each dose group were summarized using simple statistics on an Excel® spreadsheet; i.e., average (AVG) and Standard Deviation (STD). It should be noted that particularly with the lower doses and associated low blood levels and at late time points, those values just above versus just below the assay limits of detection can have a disproportionate impact to AUC calculations. This adds to that variability of the calculated numbers.

Molecule `CC[C@H](C)[C@H](NC(=O)[C@H](CCC(=O)O)NC(=O)[C@H](CO)NC(=O)[C@@H](NC(=O)[C@@H](N)CO)C(C)C)C(=O)N[C@@H](CCC(N)=O)C(=O)N[C@@H](CC(C)C)C(=O)N[C@@H](CCSC)C(=O)N[C@@H](Cc1c[nH]cn1)C(=O)N[C@@H](CC(N)=O)C(=O)N[C@@H](CC(C)C)C(=O)NCC(=O)N[C@@H](CCCCN)C(=O)N[C@@H](Cc1c[nH]cn1)C(=O)N[C@@H](CC(C)C)C(=O)N[C@@H](CC(N)=O)C(=O)N[C@@H](CO)C(=O)N[C@@H](CCSC)C(=O)N[C@@H](CCC(=O)O)C(=O)N[C@@H](CCCN=C(N)N)C(=O)N[C@H](C(=O)N[C@H]1CCC(=O)NCCCC[C@@H](C(=O)N[C@@H](CC(C)C)C(=O)N[C@@H](CC(C)C)C(=O)N[C@@H](CCC(N)=O)C(=O)N[C@@H](CC(=O)O)C(=O)N[C@H](C(N)=O)C(C)C)NC(=O)[C@H](CCCN=C(N)N)NC(=O)[C@H](CC(C)C)NC(=O)[C@H](Cc2c[nH]c3ccccc23)NC1=O)C(C)C` [Ostabolin-C, [Leu^27]cyclo[Glu^22-Lys^26]-PTH-(1-31)-NH2] (H-SVSEIQLMHNLGKHLNSMERVEWLRKLLQDV-NH2; lactam 22-26) has a Cmax (female, sc, 30 ug, Dose 30, mean of Baseline and Week 12 data) of 0.0701 ng/mL, a Tmax (female, sc, 30 ug, Dose 30, mean of Baseline and Week 12 data, read-out: Tmax) of 22.8 min and a Tmax (female, sc, 45 ug, Baseline, 45 ug, AVG, read-out: Tmax) of 30 min. The AUC(0-t) (female, sc, 45 ug, Dose 45, mean of Baseline and Week 12 data, read-out: AUC(0-4)) was 0.22 ng·h/mL, the AUC(0-t) (female, sc, 45 ug, Dose 45, mean of Baseline and Week 12 data, read-out: AUC(0-24)) was 0.296 ng·h/mL and the Cmax (female, sc, 45 ug, Dose 45, mean of Baseline and Week 12 data) was 0.12 ng/mL. It also gave a Tmax (female, sc, 45 ug, Dose 45, mean of Baseline and Week 12 data, read-out: Tmax) of 22.8 min, an AUC(0-t) (female, sc, 45 ug, Week 12, 45 ug, AVG, read-out: AUC(0-4)) of 0.0995 ng·h/mL and an AUC(0-t) (female, sc, 45 ug, Week 12, 45 ug, AVG, read-out: AUC(0-24)) of 0.171 ng·h/mL. The Cmax (female, sc, 45 ug, Week 12, 45 ug, AVG) was 0.0669 ng/mL, the Tmax (female, sc, 45 ug, Week 12, 45 ug, AVG, read-out: Tmax) was 15 min and the Tmax (female, sc, all doses, Baseline and Week 12 (STD 0.21 hrs), read-out: Tmax, overall average) was 20.4 min. It also gave an AUC(0-t) (female, subcutaneous, 7.5 ug, Baseline, 7.5 ug, AVG, read-out: AUC(0-4)) of 0.0388 ng·h/mL, an AUC(0-t) (female, subcutaneous, 7.5 ug, Baseline, 7.5 ug, AVG, read-out: AUC(0-24)) of 0.0425 ng·h/mL and a Cmax (female, subcutaneous, 7.5 ug, Baseline, 7.5 ug, AVG) of 0.0272 ng/mL. It also gave an AUC(0-t) (female, subcutaneous, 15 ug, Baseline, 15 ug, AVG, read-out: AUC(0-4)) of 0.0742 ng·h/mL, an AUC(0-t) (female, subcutaneous, 15 ug, Baseline, 15 ug, AVG, read-out: AUC(0-24)) of 0.0742 ng·h/mL and a Cmax (female, subcutaneous, 15 ug, Baseline, 15 ug, AVG) of 0.0449 ng/mL. The Tmax (female, subcutaneous, 15 μg, Dose 15, mean of Baseline and Week 12 data, read-out: Tmax) was 19.8 min, the Tmax (female, subcutaneous, 15 ug, Week 12, 15 ug, AVG, read-out: Tmax) was 19.8 min and the AUC(0-t) (female, subcutaneous, 45 ug, Baseline, 45 ug, AVG, read-out: AUC(0-4)) was 0.341 ng·h/mL. It also gave an AUC(0-t) (female, subcutaneous, 45 ug, Baseline, 45 ug, AVG, read-out: AUC(0-24)) of 0.42 ng·h/mL, a Cmax (female, subcutaneous, 45 ug, Baseline, 45 ug, AVG) of 0.174 ng/mL and a Cmax (subcutaneous, 7.5 ug, Baseline, 7.5 ug, individual subjects) of 0.0207 ng/mL. It also gave a Cmax (subcutaneous, 7.5 ug, Week 12, 7.5 ug, individual subjects) of 0.021 ng/mL, a Tmax (subcutaneous, 7.5 ug, Week 12, 7.5 ug, individual subjects, read-out: Tmax) of 15 min and an AUC(0-t) (subcutaneous, 15 ug, Baseline, 15 ug, individual subjects, read-out: AUC(0-4)) of 0.066 ng·h/mL. For the same molecule, the AUC(0-t) (subcutaneous, 15 ug, Baseline, 15 ug, individual subjects, read-out: AUC(0-24)) was 0.066 ng·h/mL, the Cmax (subcutaneous, 15 ug, Baseline, 15 ug, individual subjects) was 0.0306 ng/mL and the Tmax (subcutaneous, 15 ug, Baseline, 15 ug, individual subjects, read-out: Tmax) was 30 min. The Tmax (subcutaneous, 15 ug, Week 12, 15 ug, individual subjects, read-out: Tmax) was 15 min, the AUC(0-t) (subcutaneous, 30 ug, Baseline, 30 ug, individual subject, read-out: AUC(0-4)) was 0.104 ng·h/mL and the AUC(0-t) (subcutaneous, 30 ug, Baseline, 30 ug, individual subject, read-out: AUC(0-24)) was 0.104 ng·h/mL. It also gave a Cmax (subcutaneous, 30 ug, Baseline, 30 ug, individual subject) of 0.0639 ng/mL, a Tmax (subcutaneous, 30 ug, Baseline, 30 ug, individual subject, read-out: Tmax) of 30 min and an AUC(0-t) (subcutaneous, 30 ug, Week 12, 30 ug, individual subjects, read-out: AUC(0-24)) of 0.154 ng·h/mL. The Cmax (subcutaneous, 30 ug, Week 12, 30 ug, individual subjects) was 0.0762 ng/mL, the Tmax (subcutaneous, 30 ug, Week 12, 30 ug, individual subjects, read-out: Tmax) was 15 min and the AUC(0-t) (subcutaneous, 45 ug, Baseline, 45 ug, individual subjects, read-out: AUC(0-4)) was 0.337 ng·h/mL. The AUC(0-t) (subcutaneous, 45 ug, Baseline, 45 ug, individual subjects, read-out: AUC(0-24)) was 0.47 ng·h/mL, the Tmax (subcutaneous, 45 ug, Baseline, 45 ug, individual subjects, read-out: Tmax) was 30 min and the AUC(0-t) (subcutaneous, 45 ug, Week 12, 45 ug, individual subject, read-out: AUC(0-4)) was 0.128 ng·h/mL. For the same molecule, the AUC(0-t) (subcutaneous, 45 ug, Week 12, 45 ug, individual subject, read-out: AUC(0-24)) was 0.128 ng·h/mL, the Cmax (subcutaneous, 45 ug, Week 12, 45 ug, individual subject) was 0.0871 ng/mL and the Tmax (subcutaneous, 45 ug, Week 12, 45 ug, individual subject, read-out: Tmax) was 15 min.
